From PubChem BioAssay (NCI) come the findings set out here.

Some test systems named below: A549 NSCLC; COLO 205 colon; HCT-116 colon; HCT-15 colon; K-562 leukemia; KM12 colon; LOX IMVI melanoma; NCI-H522 lung; OVCAR-3 ovarian; OVCAR-5 ovarian; OVCAR-8 ovarian; SF-295 CNS; SK-MEL-2 melanoma; U251 CNS; UACC-62 melanoma; M14 melanoma; MDA-MB-231 breast; PC-3 prostate.
Experiment in all cases: NCI anticancer screen, dose series, 48 h

Molecules are shown by their SMILES.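 Tested at 5 concentrations; 48 h exposure; 96-well plates; endpoints linearly interpolated, else capped at highest concentration. TGI denotes the concentration required for complete inhibition of growth.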

In the case of `C=C1C(=O)O[C@@H]2[C@H]3O[C@]3(C)CCC=C(C)CC[C@@H]12`, the TGI came out at 202 µM with A549 NSCLC; 31.7 µM in the assay with COLO 205 colon; 35.1 µM in the assay with HCT-116 colon; 35.3 µM in the assay on HCT-15 colon; 130 µM with K-562 leukemia; 53.6 µM in the assay on KM12 colon. For the same compound, the TGI was 21.2 µM in the assay on LOX IMVI melanoma; 17.1 µM with NCI-H522 lung; 40.7 µM in the assay with OVCAR-3 ovarian; 63.6 µM in the assay with OVCAR-5 ovarian; 43.9 µM with OVCAR-8 ovarian; 83.2 µM in the assay on SF-295 CNS. In addition, the figures for the TGI with SK-MEL-2 melanoma, in the assay on U251 CNS and in the assay with UACC-62 melanoma were 37.7 µM, 88.6 µM and 37.7 µM, respectively.
Consider `COc1ccc(/C=C2\C=Cc3ccccc32)cc1OC`, for which the TGI in the assay with A549 NSCLC, in the assay on COLO 205 colon, in the assay with HCT-116 colon, in the assay with HCT-15 colon, in the assay with K-562 leukemia and in the assay with KM12 colon was above 100 µM throughout. For the same compound, the TGI with LOX IMVI melanoma, in the assay on M14 melanoma, with MDA-MB-231 breast, in the assay with NCI-H522 lung, in the assay on OVCAR-3 ovarian and in the assay on OVCAR-5 ovarian was above 100 µM throughout. For the same compound, the TGI in the assay with OVCAR-8 ovarian, with PC-3 prostate, with SF-295 CNS, in the assay with SK-MEL-2 melanoma, in the assay on U251 CNS and in the assay with UACC-62 melanoma was above 100 µM throughout.
With `C=C[C@@H]1OC(=O)O[C@H]1CO`, the TGI in the assay with A549 NSCLC, in the assay with COLO 205 colon, with HCT-116 colon, in the assay with HCT-15 colon, with K-562 leukemia and with KM12 colon was above 100 µM in each case. For the same compound, the TGI in the assay with LOX IMVI melanoma, in the assay with M14 melanoma, in the assay on MDA-MB-231 breast, with OVCAR-3 ovarian, in the assay with OVCAR-5 ovarian and in the assay with OVCAR-8 ovarian was above 100 µM in each case. For the same compound, the TGI in the assay on PC-3 prostate, in the assay with SF-295 CNS, in the assay with SK-MEL-2 melanoma, with U251 CNS and in the assay on UACC-62 melanoma was above 100 µM in each case.
On to `CCCCCC(CN1CCOCC1)C(=O)/C=C/c1ccccc1` (centres undefined), for which the TGI came to 12 µM in the assay with A549 NSCLC; 13.9 µM with COLO 205 colon; 3.34 µM in the assay with HCT-116 colon; 4.92 µM in the assay on HCT-15 colon; 5.85 µM in the assay with K-562 leukemia; 3.79 µM with KM12 colon. Further, the TGI was determined as 2.67 µM in the assay with LOX IMVI melanoma; 5.44 µM with M14 melanoma; 8.64 µM in the assay on OVCAR-3 ovarian; 11.1 µM with OVCAR-5 ovarian; 10.2 µM in the assay with SF-295 CNS; 9.19 µM with U251 CNS. In the assay on UACC-62 melanoma, this compound showed a TGI of 3.37 µM.
For `CN(C)c1ccc(-c2cc(=O)c3ccccc3[nH]2)cc1`, the TGI in the assay with A549 NSCLC, in the assay with COLO 205 colon, in the assay with HCT-116 colon, in the assay on HCT-15 colon, in the assay on K-562 leukemia and in the assay on KM12 colon was above 100 µM throughout. Besides, the TGI in the assay with LOX IMVI melanoma, in the assay with M14 melanoma, in the assay on NCI-H522 lung, in the assay with OVCAR-3 ovarian, in the assay on OVCAR-8 ovarian and with SF-295 CNS was above 100 µM in each case. The compound further displayed a TGI with U251 CNS above 100 µM.
For the compound `O=C1C=CC(=O)c2c1ccc1c3ccccc3n(-c3ccccn3)c21`, the TGI with A549 NSCLC was above 100 µM; in the assay on COLO 205 colon it was 30.2 µM; in the assay on HCT-116 colon, 25.9 µM; in the assay with HCT-15 colon, 35.3 µM; in the assay on K-562 leukemia, 51.1 µM; with KM12 colon it was above 100 µM. The TGI was 87.9 µM in the assay on M14 melanoma; 8.67 µM in the assay with NCI-H522 lung; 63.8 µM in the assay on OVCAR-3 ovarian; above 100 µM in the assay with OVCAR-5 ovarian; above 100 µM with OVCAR-8 ovarian; above 100 µM with SF-295 CNS. The TGI in the assay with SK-MEL-2 melanoma and with U251 CNS was above 100 µM in each case.
Take `NC(=S)/N=C/c1c(O)c2ccccc2oc1=O`: the TGI in the assay on A549 NSCLC, with COLO 205 colon, in the assay with HCT-116 colon, in the assay on HCT-15 colon, with K-562 leukemia and in the assay with KM12 colon was above 100 µM each time. Besides, the TGI with LOX IMVI melanoma, with M14 melanoma, in the assay on NCI-H522 lung, in the assay with OVCAR-3 ovarian, with OVCAR-5 ovarian and with OVCAR-8 ovarian was above 100 µM in each case. Further, the TGI with SF-295 CNS was above 100 µM; with SK-MEL-2 melanoma, 97.3 µM; with U251 CNS, above 100 µM; in the assay with UACC-62 melanoma, above 100 µM.
Turning to `CC1C(c2ccc(F)cc2)c2cc3c(cc2OC1N1CCCC1)OCO3` (centres undefined), the TGI in the assay with A549 NSCLC, in the assay with COLO 205 colon, in the assay on HCT-116 colon, with HCT-15 colon, in the assay with K-562 leukemia and with KM12 colon was above 100 µM throughout. Further, the TGI with LOX IMVI melanoma, in the assay with M14 melanoma, in the assay on NCI-H522 lung, in the assay on OVCAR-3 ovarian, in the assay on OVCAR-5 ovarian and with OVCAR-8 ovarian was above 100 µM each time. Further, the TGI in the assay on PC-3 prostate, with SF-295 CNS, in the assay with SK-MEL-2 melanoma and in the assay with UACC-62 melanoma was above 100 µM throughout.
`C=CC1(C)CCC(C(C)C(=O)C(C=C(C)C)OC(C)=O)C12C(=O)Oc1ccccc1C2=O` (centres undefined): the TGI with A549 NSCLC, in the assay on COLO 205 colon, in the assay with HCT-116 colon, with HCT-15 colon, in the assay with K-562 leukemia and in the assay on KM12 colon was above 100 µM throughout. In addition, the TGI with LOX IMVI melanoma, in the assay on M14 melanoma, in the assay on NCI-H522 lung, in the assay on OVCAR-3 ovarian, with OVCAR-8 ovarian and in the assay with SF-295 CNS was above 100 µM throughout. Also, the TGI in the assay on SK-MEL-2 melanoma, in the assay with U251 CNS and with UACC-62 melanoma was above 100 µM each time.
With `CCOC(=O)C1(C(=O)OCC)C[C@]23OCCC(=O)[C@H]2[C@H]2C(=O)OC(C)(C)O[C@]23C1`, the TGI with A549 NSCLC, in the assay on COLO 205 colon, in the assay with HCT-116 colon, in the assay on HCT-15 colon, in the assay with KM12 colon and in the assay on LOX IMVI melanoma was above 100 µM each time. Moreover, the TGI in the assay with M14 melanoma, with MDA-MB-231 breast, in the assay on NCI-H522 lung, with OVCAR-3 ovarian, in the assay with OVCAR-5 ovarian and with OVCAR-8 ovarian was above 100 µM throughout. Also, the TGI in the assay on PC-3 prostate, with SF-295 CNS, in the assay on SK-MEL-2 melanoma, in the assay on U251 CNS and in the assay with UACC-62 melanoma was above 100 µM each time.
For the compound `CC1=C2C(O)C(C(C)C(=O)NCC(C)C)CCC2(C)C=CC1=O` (centres undefined), the TGI in the assay with A549 NSCLC, in the assay on COLO 205 colon, with HCT-116 colon, in the assay on HCT-15 colon, in the assay on K-562 leukemia and with KM12 colon was above 100 µM throughout. Besides, the TGI in the assay with LOX IMVI melanoma, with NCI-H522 lung, in the assay on OVCAR-3 ovarian, with OVCAR-5 ovarian, in the assay with OVCAR-8 ovarian and in the assay with SF-295 CNS was above 100 µM each time. Moreover, the TGI with SK-MEL-2 melanoma, in the assay on U251 CNS and in the assay with UACC-62 melanoma was above 100 µM in each case.
In the case of `O=c1c(O)c(-c2ccc(O)cc2O)oc2cc(O)cc(O)c12`, the TGI with A549 NSCLC, with COLO 205 colon, with HCT-116 colon, with HCT-15 colon, in the assay on K-562 leukemia and in the assay with KM12 colon was above 100 µM each time. The TGI in the assay on LOX IMVI melanoma, in the assay with M14 melanoma, with MDA-MB-231 breast, with OVCAR-3 ovarian, in the assay on OVCAR-5 ovarian and in the assay with OVCAR-8 ovarian was above 100 µM each time. The TGI with PC-3 prostate, with SF-295 CNS, in the assay with SK-MEL-2 melanoma and with U251 CNS was above 100 µM each time.
For `NC(=O)NC(=O)c1cnccn1`, the TGI in the assay on A549 NSCLC, in the assay with HCT-116 colon, in the assay on HCT-15 colon, in the assay on K-562 leukemia, with KM12 colon and in the assay with LOX IMVI melanoma was above 100 µM each time. Moreover, the TGI in the assay with M14 melanoma, in the assay with MDA-MB-231 breast, in the assay with NCI-H522 lung, with OVCAR-3 ovarian, with OVCAR-5 ovarian and in the assay with PC-3 prostate was above 100 µM in each case. In addition, the TGI in the assay with SF-295 CNS, in the assay with SK-MEL-2 melanoma, with U251 CNS and in the assay with UACC-62 melanoma was above 100 µM in each case.
Consider `O=C(NN=C1CCN(Cc2ccccc2)CC1)C(O)(c1ccccc1)c1ccccc1`, for which the TGI in the assay on A549 NSCLC, in the assay with COLO 205 colon, in the assay on HCT-116 colon, in the assay with HCT-15 colon, with KM12 colon and in the assay on LOX IMVI melanoma was above 100 µM each time. Besides, the TGI in the assay with M14 melanoma, in the assay on MDA-MB-231 breast, with OVCAR-5 ovarian, in the assay with OVCAR-8 ovarian, in the assay on SF-295 CNS and in the assay on U251 CNS was above 100 µM in each case. Also, in the assay with UACC-62 melanoma, the TGI is above 100 µM.
